According to patent US20100055168A1, “CATIONIC LIPIDS AND USES THEREOF” (ABBOTT LABORATORIES, priority 2008, published 2010):

Tests used:
[1] = Particle sizing assay of in vitro formulations (dynamic light scattering, DynaPro plate reader); type: physicochemical; conditions: Lipid:siRNA 25:1
Protocol: (§1) The siRNA concentrations were measured using Quanti-iT RiboGreen RNA reagent (Molecular Probes, (R11490)). Vesicle sizes were characterized by dynamic light scattering with a DynaPro™ Plate Reader (Wyatt Technology) in 96-well half-area UV plate (Coring) after diluting the formulation sample (20 μL) in phosphate buffered saline (80 μL) at a pH of about 7-8. A 1% agarose gel-based assay was used for analyzing nuclease degradation and protection. Encapsulation efficiency (EE) was calculated using data obtained from a RiboGreen assay.
Particle sizes and size distributions (PDI) were characterized by using dynamic light scattering (DLS). A DLS plate reader (Dynapro™, Wyatt Technology) was used for the DLS measurement. This DLS plate reader uses an 830 nm laser and the scattering angle is 158°. It also can control temperature from 4° C. to 70° C. A 96-well format was employed for the samples.
Samples for DLS analysis were prepared by mixing 20 μL of each sample stock solution with 80 μL PBS directly in the 96-well plate (#3697, Coming). Sample mixing was accomplished using a microplate shaker (Orbis, Mikura Ltd.). Plates were read at 20° C. with an acquisition time of 50 seconds for each sample, and data was analyzed with Wyatt Technology's Dynamics V6 software. To rule out potential multiple scattering artifacts, a second plate at […] reduced sample concentrations was independently prepared by mixing 5 μL stock solutions with 95 μL PBS. Under our experimental conditions the results at the two concentrations were very similar, and the final reported result for each sample represents the average of values obtained from the two plates.

[2] = Ribogreen assay for siRNA encapsulation efficiency of Lipid-Based Particles; type: physicochemical; conditions: Lipid:siRNA 25:1
Protocol: The mixing solution of cationic lipids, cholesterol, non-cationic lipids and PEG-lipids was prepared in ethanol (total concentration at 10 mg/mL). siSTABLE (purchased from ThermoFisher) (sense-5′ GGGGAAAGCUGGCAAGAUUUU-3′ SEQ ID NO: 1) antisense-5′-AAUCUUGCCAGCUUUCCCCUU-3′ SEQ ID NO: 2) % stock solution was prepared in 10 mg/mL of solution by dissolving 10 mg siRNA in 1 mL of RNAse-free UltraPure Water. The calculated amount of siRNA solution was added to 1 mL of citrate buffer (pH 4.0, 20 mM), to provide an siRNA concentration of 0.2 mg/mL, and warmed to 60° C. The calculated amount of lipid solution was warmed to 60° C., transferred to a 0.5 mL syringe with 28½ gauge needle, and injected into the citrate buffer with stirring at 60° C. After 3 minutes, 3 mL of PBS solution at room temperature (pH 7.4) was added into the lipid mixture with stirring. The Lipid-Based Particle solution was cooled to room temperature.
as §1
RNA concentration and encapsulation efficiency were determined using a Quant-iT® Ribogreen RNA reagent and kit available from Invitrogen. The siRNA was released from the Lipid-Based Particle using one of the following reagents: ethanol, Triton X-100, or phenol/chloroform. The siRNA concentration is quantified using fluorescent reading at 480 nm/520 nm.
A round bottom flask was submerged into a 65° C. water bath. Citrate buffer (37.5 ml) of pH 4.0 was pipetted into the flask. The solution was stirred by a magnetic stirring bar at a speed of 900 rpm. Both the pH 4.0 citrate buffer and the lipid solution were pre-warmed in the 65° C. water bath for about 3 minutes. A siRNA solution (0.5 ml) was pipetted into the pH 4.0 citrate buffer. The 12.5 ml lipid mixture solution was injected through a 27 gauge needle into the citrate buffer in about 30 seconds. The needle tip was inserted into the solution during the injection. The resulting solution was stirred for 5 minutes at a speed of 900 rpm. The flask was pulled up from the water bath and a 50 ml pH 7.4 PBS buffer was added into the flask. The final solution was further mixed at a speed of 900 rpm for 5 minutes. For the diafiltration process, a dialysis filter (Millipore, 100K, Cat #PXB100C50) was used to remove ethanol in the above solution. When the volume was reduced to 20 ml during the initial diafiltration, 20 ml of pH 7.4 PBS was added to the sample solution. The diafiltration was continued until the volume was reduced to 20 ml. The diafiltration process was repeated 4 times. The volume of the sample solution was reduced to about 12 ml and pH 7.4 PBS was added to make the final volume of 15 ml. The 15 ml solution was filtered sequentially through the 0.45 and 0.22 μm sterile PVDF membrane filters (Millipore) and immediately transferred into a sterile vial.

[3] = in vitro formulation a: Cationic lipid/Example 56/DSPC/Chol 45/10/15/30 wt %
[4] = in vitro formulation b: Cationic lipid/PEG-Chol/DSPC/Chol 45/10/15/30 wt %

Compound | Size [1, 3] [nm] | Size [1, 4] [nm] | % Encapsulation Efficiency [2, 4] [%] | further results
CCCCC/C=C\C/C=C\CCCCCCCCOCC(COCCCCCCCC/C=C\C/C=C\CCCCC)N1CCCC1 [Example 1, 1-(2-((9Z,12Z)-octadeca-9,12-dienyloxy)-1-(((9Z,12Z)-octadeca-9,12-dienyloxy)methyl)ethyl)pyrrolidine] | 170 | – | – | PDI (size distribution) [1, 3]: 0.20
CCCCC/C=C\C/C=C\CCCCCCCCOCC(COCCCCCCCC/C=C\C/C=C\CCCCC)N(C)C [Example 2, N,N-dimethyl-N-(2-((9Z,12Z)-octadeca-9,12-dienyloxy)-1-(((9Z,12Z)-octadeca-9,12-dienyloxy)methyl)ethyl)amine] | 134 | – | – | –
CCCCC/C=C\C/C=C\CCCCCCCCOCC(COCCCCCCCC/C=C\C/C=C\CCCCC)N1CCOCC1 [Example 5, 4-(2-((9Z,12Z)-octadeca-9,12-dienyloxy)-1-(((9Z,12Z)-octadeca-9,12-dienyloxy)methyl)ethyl)morpholine] | 143 | – | – | PDI (size distribution) [1, 3]: 0.14
CCCCC/C=C\C/C=C\CCCCCCCCOCC(COCCCCCCCC/C=C\C/C=C\CCCCC)NCCN1CCN(C)CC1 [Example 8, N-(2-(4-methylpiperazin-1-yl)ethyl)-N-(2-((9Z,12Z)-octadeca-9,12-dienyloxy)-1-(((9Z,12Z)-octadeca-9,12-dienyloxy)methyl)ethyl)amine] | – | 107.6 | 81.8 | –
CCCCC/C=C\C/C=C\CCCCCCCCOCC(COCCCCCCCC/C=C\C/C=C\CCCCC)N1CCN(CCCN(C)C)CC1 [Example 10, N,N-dimethyl-N-(3-(4-(2-((9Z,12Z)-octadeca-9,12-dienyloxy)-1-(((9Z,12Z)-octadeca-9,12-dienyloxy)methyl)ethyl)piperazin-1-yl)propyl)amine] | – | 112 | 72.6 | –
CCCCC/C=C\C/C=C\CCCCCCCCOCC(N)COCCCCCCCC/C=C\C/C=C\CCCCC [Example 11, 1,3-bis((9Z,12Z)-octadeca-9,12-dienyloxy)propan-2-amine] | 132 | – | – | % Encapsulation Efficiency [2, 3]: 96.0%
CCCCC/C=C\C/C=C\CCCCCCCCOCC(COCCCCCCCC/C=C\C/C=C\CCCCC)NCC1CCN(C)CC1 [Example 12, N-((1-methylpiperidin-4-yl)methyl)-N-(2-((9Z,12Z)-octadeca-9,12-dienyloxy)-1-(((9Z,12Z)-octadeca-9,12-dienyloxy)methyl)ethyl)amine] | – | 119.8 | 84.9 | –
CCCCC/C=C\C/C=C\CCCCCCCCOCC(COCCCCCCCC/C=C\C/C=C\CCCCC)NCc1cccc(CN2CCCC2)c1 [Example 13, N-(2-((9Z,12Z)-octadeca-9,12-dienyloxy)-1-(((9Z,12Z)-octadeca-9,12-dienyloxy)methyl)ethyl)-N-(3-(pyrrolidin-1-ylmethyl)benzyl)amine] | 146 | – | – | % Encapsulation Efficiency [2, 3]: 97.1%
CCCCC/C=C\C/C=C\CCCCCCCCOCC(COCCCCCCCC/C=C\C/C=C\CCCCC)N(C)CCCN1CCCC1 [Example 14, N-methyl-N-(2-((9Z,12Z)-octadeca-9,12-dienyloxy)-1-(((9Z,12Z)-octadeca-9,12-dienyloxy)methyl)ethyl)-N-(3-pyrrolidin-1-ylpropyl)amine] | – | 128.4 | 88.3 | –
CCCCC/C=C\C/C=C\CCCCCCCCOCC(COCCCCCCCC/C=C\C/C=C\CCCCC)NCc1cccc(CN2CCN(C)CC2)c1 [Example 15, N-(3-((4-methylpiperazin-1-yl)methyl)benzyl)-N-(2-((9Z,12Z)-octadeca-9,12-dienyloxy)-1-(((9Z,12Z)-octadeca-9,12-dienyloxy)methyl)ethyl)amine] | 116 | – | – | % Encapsulation Efficiency [2, 3]: 96.2%
CCCCC/C=C\C/C=C\CCCCCCCCOCC(COCCCCCCCC/C=C\C/C=C\CCCCC)N(C)CC1CCN(C)CC1 [Example 16, N-methyl-N-((1-methylpiperidin-4-yl)methyl)-N-(2-((9Z,12Z)-octadeca-9,12-dienyloxy)-1-(((9Z,12Z)-octadeca-9,12-dienyloxy)methyl)ethyl)amine] | – | 130 | 93.1 | –
CCCCC/C=C\C/C=C\CCCCCCCCOCC(COCCCCCCCC/C=C\C/C=C\CCCCC)N(C)CCCN(C)C [Example 17, N,N,N′-trimethyl-N′-(2-((9Z,12Z)-octadeca-9,12-dienyloxy)-1-(((9Z,12Z)-octadeca-9,12-dienyloxy)methyl)ethyl)propane-1,3-diamine] | – | 121.8 | 87.1 | –
CCCCC/C=C\C/C=C\CCCCCCCCOCC(COCCCCCCCC/C=C\C/C=C\CCCCC)CN1CCCC1 [Example 24, 1-(3-((9Z,12Z)-octadeca-9,12-dienyloxy)-2-(((9Z,12Z)-octadeca-9,12-dienyloxy)methyl)propyl)pyrrolidine] | – | – | 91.7 | –
CCCCC/C=C\C/C=C\CCCCCCCCOCC(COCCCCCCCC/C=C\C/C=C\CCCCC)NCCCNCCCCNCCCN [Example 25, N-(3-aminopropyl)-N′-{3-[(2-[(9Z,12Z)-octadeca-9,12-dienyloxy]-1-{[(9Z,12Z)-octadeca-9,12-dienyloxy]methyl}ethyl)amino]propyl}butane-1,4-diamine] | – | – | 92.3 | –
CCCCC/C=C\C/C=C\CCCCCCCCOCC(CNCCCN1CCCC1)COCCCCCCCC/C=C\C/C=C\CCCCC [Example 26, N-(3-[(9Z,12Z)-octadeca-9,12-dienyloxy]-2-{[(9Z,12Z)-octadeca-9,12-dienyloxy]methyl}propyl)-N-(3-pyrrolidin-1-ylpropyl)amine] | – | – | 99.9 | –
CCCCC/C=C\C/C=C\CCCCCCCCOCC(COCCCCCCCC/C=C\C/C=C\CCCCC)CN(C)C [Example 27, N,N-dimethyl-N-(3-[(9Z,12Z)-octadeca-9,12-dienyloxy]-2-{[(9Z,12Z)-octadeca-9,12-dienyloxy]methyl}propyl)amine] | – | – | 71.9 | –
CCCCC/C=C\C/C=C\CCCCCCCCOCC(COCCCCCCCC/C=C\C/C=C\CCCCC)COC(=O)NCCN(CC)CC [Example 28, 3-[(9Z,12Z)-octadeca-9,12-dienyloxy]-2-{[(9Z,12Z)-octadeca-9,12-dienyloxy]methyl}propyl 2-(diethylamino)ethylcarbamate] | – | – | 93.0 | –
CCCCC/C=C\C/C=C\CCCCCCCCOCC(COCCCCCCCC/C=C\C/C=C\CCCCC)COC(=O)NCCN1CCCC1 [Example 29, 3-[(9Z,12Z)-octadeca-9,12-dienyloxy]-2-{[(9Z,12Z)-octadeca-9,12-dienyloxy]methyl}propyl 2-pyrrolidin-1-ylethylcarbamate] | – | – | 95.0 | –
CCCCC/C=C\C/C=C\CCCCCCCCOCC(COCCCCCCCC/C=C\C/C=C\CCCCC)COC(=O)NCCN(C)C [Example 30, 3-[(9Z,12Z)-octadeca-9,12-dienyloxy]-2-{[(9Z,12Z)-octadeca-9,12-dienyloxy]methyl}propyl 2-(dimethylamino)ethylcarbamate] | – | – | 95.0 | –
